Laboratory results: ChEMBL document CHEMBL4507318, “Data for DCP probe BAY-985” (2021)

Columns and labels:
[1] = molecular target: RAC-alpha serine/threonine-protein kinase (Homo sapiens) (UniProt P31749)
[2] = molecular target: Histamine H2 receptor (Homo sapiens) (UniProt P25021); settings: Compound concentration 10.0 uM
[3] = system: Phosphatidylinositol 4,5-bisphosphate 3-kinase catalytic subunit alpha isoform (Homo sapiens), P42336 [C420R]
[4] = molecular target: Tyrosine-protein kinase JAK1 (Homo sapiens) (UniProt P23458)
[5] = molecular target: Phosphorylase b kinase gamma catalytic chain, skeletal muscle/heart isoform (Homo sapiens) (UniProt Q16816)
[6] = molecular target: Serine/threonine-protein kinase Sgk3 (Homo sapiens) (UniProt Q96BR1)
[7] = molecular target: Calcium/calmodulin-dependent protein kinase type II subunit gamma (Homo sapiens) (UniProt Q13555)
[8] = system: Epidermal growth factor receptor (Homo sapiens), P00533 [UNDEFINED MUTATION]
[9] = molecular target: Misshapen-like kinase 1 (Homo sapiens) (UniProt Q8N4C8)
[10] = system: Receptor-type tyrosine-protein kinase FLT3 (Homo sapiens), P36888 [UNDEFINED MUTATION]
[11] = molecular target: Serine/threonine-protein kinase Nek5 (Homo sapiens) (UniProt Q6P3R8)
[12] = molecular target: Dual specificity protein kinase TTK (Homo sapiens) (UniProt P33981)
[13] = molecular target: Mitogen-activated protein kinase kinase kinase 2 (Homo sapiens) (UniProt Q9Y2U5)
[14] = system: ALK tyrosine kinase receptor (Homo sapiens), Q9UM73 [C1156Y]
[15] = molecular target: Muscarinic acetylcholine receptor M3 (Homo sapiens) (UniProt P20309); settings: Compound concentration 10.0 uM
[16] = molecular target: AP2-associated protein kinase 1 (Homo sapiens) (UniProt Q2M2I8)
[17] = molecular target: Activated CDC42 kinase 1 (Homo sapiens) (UniProt Q07912)
[18] = molecular target: Phosphatidylinositol 4-kinase beta (Homo sapiens) (UniProt Q9UBF8)
[19] = molecular target: BDNF/NT-3 growth factors receptor (Homo sapiens) (UniProt Q16620)
[20] = molecular target: Serine/threonine-protein kinase MRCK alpha (Homo sapiens) (UniProt Q5VT25)
[21] = molecular target: Sodium-dependent serotonin transporter (Homo sapiens) (UniProt P31645); settings: Compound concentration 10.0 uM
[22] = molecular target: Serine/threonine-protein kinase MARK2 (Homo sapiens) (UniProt Q7KZI7)
[23] = molecular target: Tyrosine-protein kinase Tec (Homo sapiens) (UniProt P42680)
[24] = molecular target: TRAF2 and NCK-interacting protein kinase (Homo sapiens) (UniProt Q9UKE5)
[25] = molecular target: Dual specificity protein kinase CLK2 (Homo sapiens) (UniProt P49760)
[26] = molecular target: Protein kinase C theta type (Homo sapiens) (UniProt Q04759)
[27] = molecular target: Serine/threonine-protein kinase DCLK1 (Homo sapiens) (UniProt O15075)
[28] = molecular target: Muscarinic acetylcholine receptor M5 (Homo sapiens) (UniProt P08912); settings: Compound concentration 10.0 uM
[29] = molecular target: Serine/threonine-protein kinase TAO2 (Homo sapiens) (UniProt Q9UL54)
[30] = molecular target: cAMP-dependent protein kinase catalytic subunit alpha (Homo sapiens) (UniProt P17612)
[31] = molecular target: Ephrin type-B receptor 1 (Homo sapiens) (UniProt P54762)
[32] = molecular target: Serine/threonine-protein kinase 38 (Homo sapiens) (UniProt Q15208)
[33] = molecular target: Serine/threonine-protein kinase TBK1 (Homo sapiens) (UniProt Q9UHD2)
[34] = molecular target: Serine/threonine-protein kinase 10 (Homo sapiens) (UniProt O94804)
[35] = molecular target: Interleukin-1 receptor-associated kinase 1 (Homo sapiens) (UniProt P51617)
[36] = molecular target: Mitogen-activated protein kinase kinase kinase 15 (Homo sapiens) (UniProt Q6ZN16)
[37] = system: ALK tyrosine kinase receptor (Homo sapiens), Q9UM73 [L1196M]
[38] = molecular target: Mitogen-activated protein kinase 1 (Homo sapiens) (UniProt P28482)
[39] = molecular target: Serine/threonine-protein kinase 32C (Homo sapiens) (UniProt Q86UX6)
[40] = molecular target: D(1B) dopamine receptor (Homo sapiens) (UniProt P21918); settings: Compound concentration 10.0 uM
[41] = molecular target: Interleukin-1 receptor-associated kinase 3 (Homo sapiens) (UniProt Q9Y616)
[42] = molecular target: Serine/threonine-protein kinase Nek11 (Homo sapiens) (UniProt Q8NG66)
[43] = molecular target: Focal adhesion kinase 1 (Homo sapiens) (UniProt Q05397)
[44] = molecular target: 5'-AMP-activated protein kinase catalytic subunit alpha-2 (Homo sapiens) (UniProt P54646)
[45] = molecular target: Protein-tyrosine kinase 2-beta (Homo sapiens) (UniProt Q14289)
[46] = Compound concentration 1000.0 nM
[47] = Compound concentration 100.0 nM

ALK tyrosine kinase receptor (Homo sapiens), Q9UM73 [C1156Y], sequence (Q9UM73 whole entry C1156Y, looked up): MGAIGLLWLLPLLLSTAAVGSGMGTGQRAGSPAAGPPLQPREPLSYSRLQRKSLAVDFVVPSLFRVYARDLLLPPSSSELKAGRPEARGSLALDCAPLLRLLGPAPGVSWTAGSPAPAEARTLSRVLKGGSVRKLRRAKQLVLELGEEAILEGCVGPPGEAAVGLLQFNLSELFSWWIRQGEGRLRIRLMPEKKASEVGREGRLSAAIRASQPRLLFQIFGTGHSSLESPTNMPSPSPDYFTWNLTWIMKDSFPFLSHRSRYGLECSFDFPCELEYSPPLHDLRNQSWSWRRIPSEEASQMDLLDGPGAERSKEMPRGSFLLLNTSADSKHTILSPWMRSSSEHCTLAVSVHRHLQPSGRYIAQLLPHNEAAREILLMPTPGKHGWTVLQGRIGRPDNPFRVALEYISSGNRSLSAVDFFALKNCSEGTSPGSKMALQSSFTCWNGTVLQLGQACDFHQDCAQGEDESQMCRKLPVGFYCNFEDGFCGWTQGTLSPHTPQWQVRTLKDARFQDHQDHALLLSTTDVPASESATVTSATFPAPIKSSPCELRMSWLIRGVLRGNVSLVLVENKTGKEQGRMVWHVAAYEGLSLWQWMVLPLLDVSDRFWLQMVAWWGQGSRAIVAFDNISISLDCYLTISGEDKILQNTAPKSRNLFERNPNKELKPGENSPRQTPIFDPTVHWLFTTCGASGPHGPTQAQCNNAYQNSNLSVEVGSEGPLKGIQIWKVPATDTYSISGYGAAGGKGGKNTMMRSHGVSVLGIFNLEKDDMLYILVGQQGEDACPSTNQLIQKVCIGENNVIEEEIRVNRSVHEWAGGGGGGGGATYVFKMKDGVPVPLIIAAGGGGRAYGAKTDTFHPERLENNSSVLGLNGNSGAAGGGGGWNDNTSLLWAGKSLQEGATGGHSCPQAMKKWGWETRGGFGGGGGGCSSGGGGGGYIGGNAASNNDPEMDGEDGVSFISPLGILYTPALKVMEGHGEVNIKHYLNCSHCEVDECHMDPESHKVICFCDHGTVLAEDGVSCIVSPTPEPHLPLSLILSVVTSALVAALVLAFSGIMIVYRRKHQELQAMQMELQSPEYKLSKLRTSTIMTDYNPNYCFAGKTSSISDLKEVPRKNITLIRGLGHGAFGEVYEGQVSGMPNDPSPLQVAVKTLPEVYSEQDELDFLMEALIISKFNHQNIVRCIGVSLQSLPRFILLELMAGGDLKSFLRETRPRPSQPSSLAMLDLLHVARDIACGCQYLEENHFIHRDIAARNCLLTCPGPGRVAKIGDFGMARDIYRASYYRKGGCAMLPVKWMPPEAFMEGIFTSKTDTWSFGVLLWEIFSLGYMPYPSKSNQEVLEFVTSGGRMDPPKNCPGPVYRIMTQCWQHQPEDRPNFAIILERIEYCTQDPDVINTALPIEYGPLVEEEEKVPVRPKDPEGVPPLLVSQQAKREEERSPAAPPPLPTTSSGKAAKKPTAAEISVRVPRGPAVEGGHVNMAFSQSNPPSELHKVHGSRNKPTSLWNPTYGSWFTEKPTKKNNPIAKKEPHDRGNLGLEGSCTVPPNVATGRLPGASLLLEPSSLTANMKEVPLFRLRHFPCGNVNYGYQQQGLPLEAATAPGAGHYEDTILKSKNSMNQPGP
Mitogen-activated protein kinase kinase kinase 2 (Homo sapiens), sequence (Q9Y2U5 whole entry): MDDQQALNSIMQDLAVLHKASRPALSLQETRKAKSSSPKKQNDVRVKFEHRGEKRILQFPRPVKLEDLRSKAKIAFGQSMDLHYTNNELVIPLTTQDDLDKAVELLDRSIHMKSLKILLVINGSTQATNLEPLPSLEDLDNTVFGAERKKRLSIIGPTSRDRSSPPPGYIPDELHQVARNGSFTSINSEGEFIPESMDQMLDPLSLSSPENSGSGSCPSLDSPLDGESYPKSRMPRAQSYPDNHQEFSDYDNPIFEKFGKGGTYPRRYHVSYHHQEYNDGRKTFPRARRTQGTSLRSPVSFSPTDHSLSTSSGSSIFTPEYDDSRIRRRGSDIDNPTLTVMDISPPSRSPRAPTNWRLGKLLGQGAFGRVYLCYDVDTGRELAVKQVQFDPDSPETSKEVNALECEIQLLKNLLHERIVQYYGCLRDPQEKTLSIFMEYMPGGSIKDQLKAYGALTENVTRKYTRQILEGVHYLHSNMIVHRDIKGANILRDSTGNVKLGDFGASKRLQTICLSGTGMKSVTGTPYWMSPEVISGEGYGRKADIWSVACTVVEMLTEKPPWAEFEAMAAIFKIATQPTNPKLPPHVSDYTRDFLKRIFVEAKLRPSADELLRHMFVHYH
Ephrin type-B receptor 1 (Homo sapiens), sequence (P54762 whole entry): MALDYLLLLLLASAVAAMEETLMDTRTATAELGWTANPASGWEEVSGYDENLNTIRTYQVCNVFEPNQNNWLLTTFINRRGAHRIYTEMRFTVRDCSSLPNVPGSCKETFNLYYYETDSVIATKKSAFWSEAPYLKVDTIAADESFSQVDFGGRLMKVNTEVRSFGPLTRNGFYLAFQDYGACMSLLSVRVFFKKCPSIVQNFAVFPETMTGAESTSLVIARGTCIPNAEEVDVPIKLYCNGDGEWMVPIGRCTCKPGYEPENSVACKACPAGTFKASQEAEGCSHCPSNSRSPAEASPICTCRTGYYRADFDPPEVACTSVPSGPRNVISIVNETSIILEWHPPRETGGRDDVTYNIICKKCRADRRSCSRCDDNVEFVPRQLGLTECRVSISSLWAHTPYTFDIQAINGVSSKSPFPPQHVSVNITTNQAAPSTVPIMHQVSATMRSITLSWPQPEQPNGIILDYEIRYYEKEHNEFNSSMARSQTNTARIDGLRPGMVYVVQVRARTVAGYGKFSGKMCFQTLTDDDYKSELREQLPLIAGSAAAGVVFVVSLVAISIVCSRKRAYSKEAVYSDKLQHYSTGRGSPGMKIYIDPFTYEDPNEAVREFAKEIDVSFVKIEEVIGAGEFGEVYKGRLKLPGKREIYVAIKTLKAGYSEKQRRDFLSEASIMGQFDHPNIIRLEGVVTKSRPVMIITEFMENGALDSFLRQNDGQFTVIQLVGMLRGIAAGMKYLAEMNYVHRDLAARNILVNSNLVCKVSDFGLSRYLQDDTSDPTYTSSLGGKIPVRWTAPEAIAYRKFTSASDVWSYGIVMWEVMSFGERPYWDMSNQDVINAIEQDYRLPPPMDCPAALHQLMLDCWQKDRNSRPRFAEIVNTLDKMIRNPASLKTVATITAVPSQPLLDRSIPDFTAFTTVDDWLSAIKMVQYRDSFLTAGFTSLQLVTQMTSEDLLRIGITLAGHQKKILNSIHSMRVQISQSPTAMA
Dual specificity protein kinase CLK2 (Homo sapiens), sequence (P49760 whole entry, looked up): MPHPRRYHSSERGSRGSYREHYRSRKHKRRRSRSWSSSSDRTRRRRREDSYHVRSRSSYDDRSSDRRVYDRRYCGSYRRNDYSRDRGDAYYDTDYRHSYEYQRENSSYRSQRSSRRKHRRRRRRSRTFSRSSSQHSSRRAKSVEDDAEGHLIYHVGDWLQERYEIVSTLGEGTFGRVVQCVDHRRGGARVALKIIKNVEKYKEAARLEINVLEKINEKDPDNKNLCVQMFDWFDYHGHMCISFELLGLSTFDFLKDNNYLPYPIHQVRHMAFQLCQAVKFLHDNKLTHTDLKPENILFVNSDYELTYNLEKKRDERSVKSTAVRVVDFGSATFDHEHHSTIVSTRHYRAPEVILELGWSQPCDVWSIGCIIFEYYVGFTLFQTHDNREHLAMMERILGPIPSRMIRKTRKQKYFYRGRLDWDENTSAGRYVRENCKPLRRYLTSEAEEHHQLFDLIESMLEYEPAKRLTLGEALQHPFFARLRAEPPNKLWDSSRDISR
Sodium-dependent serotonin transporter (Homo sapiens), sequence (P31645 whole entry, looked up): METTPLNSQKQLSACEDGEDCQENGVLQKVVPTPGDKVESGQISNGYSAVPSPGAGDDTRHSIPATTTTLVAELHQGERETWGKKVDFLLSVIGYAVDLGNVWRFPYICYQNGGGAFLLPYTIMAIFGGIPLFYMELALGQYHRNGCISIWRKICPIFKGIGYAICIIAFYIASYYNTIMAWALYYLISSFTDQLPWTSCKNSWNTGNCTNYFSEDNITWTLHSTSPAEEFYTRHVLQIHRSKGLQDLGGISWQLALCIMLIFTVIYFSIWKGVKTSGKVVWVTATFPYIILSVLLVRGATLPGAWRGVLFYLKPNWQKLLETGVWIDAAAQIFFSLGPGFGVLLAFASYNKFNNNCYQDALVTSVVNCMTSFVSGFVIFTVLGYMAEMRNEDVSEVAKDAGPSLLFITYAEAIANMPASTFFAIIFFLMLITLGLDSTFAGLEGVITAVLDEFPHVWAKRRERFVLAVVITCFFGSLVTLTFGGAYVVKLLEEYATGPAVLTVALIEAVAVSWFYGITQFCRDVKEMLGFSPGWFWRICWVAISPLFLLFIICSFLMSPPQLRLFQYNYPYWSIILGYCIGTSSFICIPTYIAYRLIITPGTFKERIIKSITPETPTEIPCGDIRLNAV
Muscarinic acetylcholine receptor M3 (Homo sapiens), sequence (P20309 whole entry, looked up): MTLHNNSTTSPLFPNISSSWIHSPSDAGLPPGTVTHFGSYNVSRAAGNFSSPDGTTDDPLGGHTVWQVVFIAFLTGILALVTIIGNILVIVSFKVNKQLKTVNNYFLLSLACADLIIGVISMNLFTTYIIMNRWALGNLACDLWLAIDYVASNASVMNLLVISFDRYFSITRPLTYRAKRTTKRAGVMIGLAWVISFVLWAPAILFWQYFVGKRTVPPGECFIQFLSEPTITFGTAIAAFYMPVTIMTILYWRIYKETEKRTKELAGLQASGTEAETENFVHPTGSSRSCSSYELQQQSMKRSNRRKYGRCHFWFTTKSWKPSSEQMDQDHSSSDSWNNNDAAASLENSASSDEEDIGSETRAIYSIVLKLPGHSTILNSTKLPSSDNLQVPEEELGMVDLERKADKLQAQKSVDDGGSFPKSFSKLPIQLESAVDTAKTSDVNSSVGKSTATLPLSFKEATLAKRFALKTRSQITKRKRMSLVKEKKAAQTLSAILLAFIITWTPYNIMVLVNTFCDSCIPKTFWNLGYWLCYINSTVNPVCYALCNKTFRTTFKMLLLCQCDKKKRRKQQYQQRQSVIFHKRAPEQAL
ALK tyrosine kinase receptor (Homo sapiens), Q9UM73 [L1196M], sequence (Q9UM73 whole entry L1196M, looked up): as the sequence (Q9UM73 whole entry C1156Y, looked up) above, with Y1156C, L1196M counted along it

Structure (SMILES): CN(C)c1ncnc(-c2ccc3nc(Nc4cc(CN5CCN(C(=O)CC(F)(F)F)CC5)ccn4)[nH]c3c2)c1Cl [BAY-440]
- residual activity [1, 46]: 100%
- inhibition [2]: 32.6%
- residual activity [3, 46]: 88%
- residual activity [4, 46]: 68%
- residual activity [5, 46]: 96%
- residual activity [6, 46]: 72%
- residual activity [7, 46]: 100%
- residual activity [8, 46]: 100%
- residual activity [9, 46]: 57%
- residual activity [10, 46]: 86%
- residual activity [11, 46]: 100%
- residual activity [12, 46]: 100%
- residual activity [13, 46]: 78%
- residual activity [14, 46]: 59%
- inhibition [15]: 23.9%
- residual activity [16, 46]: 85%
- residual activity [17, 46]: 96%
- residual activity [18, 46]: 100%
- residual activity [19, 46]: 63%
- residual activity [20, 46]: 100%
- inhibition [21]: 9.9%
- residual activity [22, 46]: 68%
- residual activity [23, 46]: 100%
- residual activity [24, 46]: 53%
- residual activity [25, 46]: 90%
- residual activity [26, 46]: 100%
- residual activity [27, 46]: 92%
- inhibition [28]: 12.4%
- residual activity [29, 46]: 80%
- residual activity [30, 46]: 100%
- residual activity [31, 46]: 97%
- residual activity [32, 46]: 80%
- residual activity [33, 46]: 24%
- residual activity [34, 46]: 54%
- residual activity [35, 46]: 44%
- residual activity [36, 46]: 75%
- residual activity [37, 46]: 79%
- residual activity [38, 46]: 100%
- residual activity [39, 46]: 100%
- inhibition [40]: -9.93%
- residual activity [41, 46]: 97%
- residual activity [42, 46]: 55%
- residual activity [43, 46]: 100%
- residual activity [44, 46]: 100%
- residual activity [45, 46]: 85%

Structure (SMILES): C[C@H](c1ccnc(Nc2nc3ccc(-c4cc(N(C)C)ncn4)cc3[nH]2)c1)N1CCN(C(=O)CC(F)(F)F)CC1 [BAY-985]
- residual activity [1, 47]: 100%
- inhibition [2]: 3.55%
- residual activity [3, 47]: 100%
- residual activity [4, 47]: 100%
- residual activity [5, 47]: 100%
- residual activity [6, 47]: 100%
- residual activity [7, 47]: 77%
- residual activity [8, 47]: 96%
- residual activity [9, 47]: 94%
- residual activity [10, 47]: 100%
- residual activity [11, 47]: 100%
- residual activity [12, 47]: 82%
- residual activity [13, 47]: 100%
- residual activity [14, 47]: 100%
- inhibition [15]: -8.4%
- residual activity [16, 47]: 60%
- residual activity [17, 47]: 100%
- residual activity [18, 47]: 100%
- residual activity [19, 47]: 100%
- residual activity [20, 47]: 99%
- inhibition [21]: 21.6%
- residual activity [22, 47]: 100%
- residual activity [23, 47]: 100%
- residual activity [24, 47]: 96%
- residual activity [25, 47]: 65%
- residual activity [26, 47]: 100%
- residual activity [27, 47]: 96%
- inhibition [28]: 18.7%
- residual activity [29, 47]: 100%
- residual activity [30, 47]: 100%
- residual activity [31, 47]: 98%
- residual activity [32, 47]: 100%
- residual activity [33, 47]: 2.4%
- residual activity [34, 47]: 86%
- residual activity [35, 47]: 100%
- residual activity [36, 47]: 96%
- residual activity [37, 47]: 100%
- residual activity [38, 47]: 78%
- residual activity [39, 47]: 100%
- inhibition [40]: 10.2%
- residual activity [41, 47]: 76%
- residual activity [42, 47]: 96%
- residual activity [43, 47]: 100%
- residual activity [44, 47]: 100%
- residual activity [45, 47]: 91%
